Laboratory results from patent publication US6998237B1, “GD3 peptide mimics” (Health Research, Inc., priority 2002, dated 2006).
Bridge positions count the residues as written; N and C are the ends. Ends that are not written are not given here.

Columns and labels:
mAb MG22 = assay: Inhibition of binding of anti-GD3 mAb MG22 to GD3+ Melur melanoma cells by peptide mimic
Description: (§1) FIGS. 2a, 2b and 2c are representations of inhibition of binding of anti-GD3 monoclonal antibody to GD3+ cells by peptide mimics of the present invention. Data is shown for pMG21-15-1 (FIG. 2a), pMG21-8-4 (FIG. 2b) and pMG22-8-1 (FIG. 2c) for inhibition of binding of mAb MG22 (-∘-); mAb MG21 (-●-) and mAb 763.74 (-Δ-).
FIG. 3 is a representation of the effect of dithiothrietol (DTT) on inhibition of MG22 binding to GD2/3+Melur cells by […]. […] This inhibitory effect was abolished by the pre-incubation of pMG22-8-1 with 10 mM DTT (—SH), confirming that the inhibitory peptide was in its cyclized form (-S-S-). 763.74, a monoclonal antibody that recognizes another melanoma-associated antigen—the High Molecular Weight-Melanoma Associated Antigen (HMW-MAA), is used here as an irrelevant antibody to show the binding specificity of GD2/3 peptide mimic pMG22-8-1 for mAb MG22; and p763.74 is a HMW-MAA peptide mimic isolated using the mAb 763.74. It is used here as an irrelevant peptide mimic to show the binding specificity of the GD3-specific mAb MG22 for pMG22-8-1.
(§2) For further characterization, the pVIII gene inserts of positive phage clones identified by reverse ELISA were sequenced. Peptides encoded by these sequences were synthesized and then tested for GD3 specificity. This was done by assessing the peptides' ability to compete with MG21 or MG22 for binding to GD3-bearing melanoma cell line in vitro.
(§3) Cyclized pMG21-15-1, pMG21-8-4 and pMG22-8-1 were tested for inhibiting the binding of the anti-GD2 mAb to Melur melanoma cells.
The effect of 10 mM DTT on the inhibition of binding of anti-GD3 mAb to GD3+ cells was investigated.

[1] = Induction of anti-peptide and anti-carrier antibodies in immunized mice; type: in vivo
Description: FIGS. 4a, 4b, 4c are representations of induction of the anti-peptide and anti-carrier reponses. Mice were immunized on day 0, 14, 28 and 42. Sera was collected on day 10, 24 and 38. Results are shown for mice immunized with p763.74 (FIG. 4a), pMG22-8-1 (FIG. 4b) and KLH (FIG. 4c). Preimmune sera is indicated as -∘-; reaction against the immunized peptide is indicated as -●-; and reaction against peptide not used for immunization is indicated as -Δ-.
Mice were immunized with pMG22-8-1, p763.74 peptides or KLH. Sera was tested on day 10, 24 and 38. […] In the group immunized with pMG22-8-1, the titer of antibodies reacting against the GD3 peptide mimic is observed.

[2] = system: GD3 positive (Melur) cells; assay: Reactivity of sera from immunized mice to GD3 positive (Melur) versus GD3 negative (LG2) cells by ELISA; type: in vivo; conditions: following two immunizations, Melur vs LG2 cells, sera day 24 and 38
Procedure: FIGS. 5a and 5b are representations of the selective reactivity of sera from mice immunized with GD3 peptide mimic pMG22-8-1. Immunizations were carried out on […], day 14, day 28 and day 42. Serum samples were collected on day 24 and day 38 and tested for binding to GD3 positive or negative cells. Results are shown for a peptide mimic according to the present invention (pMG22-8-1; FIG. 5b) and control peptide (p763.74; FIG. 5a).
Mice were immunized with peptide pMG22-8-1 (SEQ ID NO:6) on days 0, 14, 28 and 42. Sera was collected on days 24 and 38. The sera was tested for reactivity to GD3 positive (Melur) cells compared with GD3 negative cells (LG2) by ELISA.

mAb MG21 = assay: Inhibition of binding of anti-GD3 mAb MG21 to GD3+ Melur melanoma cells by peptide mimic; conditions: cyclized peptide; FIG. 2a, 2b
Description: as §1, §2, §3

[3] = molecular target: anti-GD3 monoclonal antibody MG22; assay: inhibition of mAb MG22 binding to GD2/3+ Melur melanoma cells by cyclized peptide, at 500 µM peptide

Q: With “MCPTDMPASLCM (disulfide 2-11 (inferred)) [pMG22-8-1, GD3 peptide mimic isolated using MG22 from LX-8 phage library]” as the molecule, how does the “inhibition of mAb MG22 binding to GD3+ cells after pre-incubation of the peptide with DTT” value (mAb MG22; 10 mM DTT (reduced, non-cyclized peptide)) read?
A: abolished

Q: What about the “inhibition of binding of MG22 to Melur cells” value (mAb MG22; at 500 μM peptide, GD2/3+ Melur cells, dose-dependent) of the same molecule?
A: up to 72%

Q: What about the “inhibition of binding of panning mAb MG22 to Melur melanoma cells” value (mAb MG22; cyclized peptide, FIG. 2c) of the same molecule?
A: inhibited in a specific and dose-dependent manner

Q: What about the “titer of non-specific antibodies reacting to p763.74 (peptide not used for immunization)” value ([1]; group immunized with pMG22-8-1, FIG. 4b) of the same molecule?
A: increase

Q: What about the “titer of serum antibodies reacting to the immunogen” value ([1]; mice immunized day 0, 14, 28, 42, sera day 10, 24, 38) of the same molecule?
A: high titer

Q: And the “mice whose serum reacted selectively to GD3 positive cell line” value [2]?
A: one out of eight mice

Q: With “QPFPCYSNAPCQSPS (not fully specified (bridges); cysteine pairing not given here) [pMG21-15-1, GD3 peptide mimic isolated using MG21 from X15 phage library]” as the molecule, how does the “inhibition of binding of panning mAb MG21 to Melur melanoma cells” value (mAb MG21) read?
A: inhibited in a specific and dose-dependent manner

Q: With “RCPPEYVAADCD (disulfide 2-11 (inferred)) [pMG21-8-4, GD3 peptide mimic isolated using MG21 from LX-8 phage library]” as the molecule, how does the “inhibition of binding of panning mAb MG21 to Melur melanoma cells” value (mAb MG21) read?
A: inhibited in a specific and dose-dependent manner

Q: For MCPTDMPASLCM (disulfide 2-11 (inferred)) [pMG22-8-1], which % inhibition of MG22 binding to Melur cells [3] is on record?
A: 72%
